Results as given in PMC6022226, “Novel coumarin-6-sulfonamides as apoptotic anti-proliferative agents: synthesis, in vitro biological evaluation, and QSAR studies” (Journal of Enzyme Inhibition and Medicinal Chemistry, 2018).
Like-named read-outs stand apart in the source and are kept apart here.

How the values were obtained:
Bax = experiment: ELISA immunoassay, Bax expression level in HepG2 cells; format: cell-based, human; details: HepG2 cells treated at IC50 concentration
Excerpt: (§1) The levels of the apoptotic markers (Bax, caspase-3) and the anti-apoptotic marker (Bcl-2) were examined using ELISA colorimetric kits per the manufacturer’s protocol and referring to reported instructions[51] ^, [52].
(§2) The Bcl-2 proteins family is mainly responsible for synchronizing the mitochondrial apoptotic pathway, and classified into two major classes: anti-apoptotic proteins such as Bcl-2 protein and the counteracting pro-apoptotic proteins including Bax protein. In this study, we examined the impact of coumarins 13a and 15a on the level of the anti-apoptotic Bcl2 and the level of the pro-apoptotic Bax (Table 3).

MCF-7 breast cancer = experiment: In vitro anti-proliferative activity, SRB assay, MCF-7; format: cell-based, human; details: Homo sapiens, MCF7, 72 h incubation, mean ± SE of three experiments
Method: (§3) HepG2 liver cancer, MCF-7 breast cancer and Caco-2 cancer cell lines were obtained from the National Cancer Institute (Cairo, Egypt). Caco-2 cells were grown in DMEM while HepG2 and MCF-7 were grown in RPMI-1640. Media were supplemented with 10% heat-inactivated FBS, 50 units/mL of penicillin and 50 µg/mL of streptomycin and maintained at 37 °C in a humidified atmosphere containing 5% CO2. The cells were maintained as a “monolayer culture” by serial subculturing. Cytotoxicity was determined using the sulforhodamine B (SRB) method as previously described by Skehan et al.[50] Exponentially growing cells were collected using 0.25% trypsin-EDTA and seeded in 96-well plates at 1000–2000 cells/well in supplemented DMEM medium. After 24 h, cells were incubated for 72 h with various concentrations of the tested compounds as well as doxorubicin as the reference compound. Following 72 h of treatment, the cells were fixed with 10% trichloroacetic acid for 1 h at 4 °C. Wells were stained for 10 min at room temperature with 0.4% SRB dissolved in 1% acetic acid. The plates were air dried for 24 h, and the dye was solubilized with Tris–HCl for 5 min on a shaker at 1600 rpm. The optical density (OD) of each well was measured spectrophotometrically at 564 nm with an ELISA microplate reader (ChroMate-4300, FL, USA). The IC50 values were calculated according to the equation for Boltzmann sigmoidal concentrationeresponse curve using the nonlinear regression models (GraphPad, Prism Version 5). The results reported are means of at least three separate experiments. Significant differences were analyzed by one-way ANOVA wherein the differences were considered to be significant at p < .05.
(§4) All the newly synthesized target coumarin sulfonamides were evaluated for their in vitro anti-proliferative activity against three human tumor cancer cell lines, HepG2 hepatocellular carcinoma, MCF-7 breast cancer, and Caco-2 colon cancer, using SRB colorimetric assay as described by Skehan et al.^50 Doxorubicin was involved in the experiments as a reference cytotoxic compound.

[1] = tested on: HepG2 hepatocellular carcinoma; experiment: In vitro anti-proliferative activity, SRB assay, HepG2; format: cell-based, human; details: for IC50: Homo sapiens
Method: as §3, §4

HepG2 cells [2] = experiment: Cell cycle analysis by DNA flow cytometry (PI); format: cell-based, human; details: HepG2, 24 h, at IC50 concentration
Method: Subsequently, the treated cells were collected by centrifugation, fixed in ice-cold 70% (v/v) ethanol, washed with PBS, re-suspended with 0.1 mg/mL RNase, stained with […] PI, and analyzed by flow cytometry using FACS Calibur (Becton Dickinson, BD). The cell cycle distributions were calculated using CellQuest software (Becton Dickinson)[53].
The impact of compound 13a on cell cycle progression was examined in HepG2 cancer cell line after 24 h of treatment (Figure 2). This impact was illustrated by DNA flow cytometric analysis where HepG2 cells were treated with 13a at concentration equals to its IC50. […] Alteration of the Pre-G1 phase and arrest of G2-M phase were significant remarks for compound 13a to induce apoptosis in HepG2 cells.

Bcl-2 = experiment: ELISA immunoassay, Bcl-2 expression level in HepG2 cells; format: cell-based, human; details: HepG2 cells treated at IC50 concentration
Excerpt: as §1, §2

Caco-2 colon cancer = experiment: In vitro anti-proliferative activity, SRB assay, Caco-2; format: cell-based, human; details: Homo sapiens, Caco-2
Method: as §3, §4

[3] = tested on: non-tumorigenic human normal lung fibroblast cell line (WI-38); experiment: In vitro cytotoxicity towards normal WI-38 cells; format: cell-based
HepG2 cells [4] = experiment: Annexin V-FITC/PI apoptosis assay; format: cell-based, human; details: HepG2, 24 h
Method: Phosphatidylserine externalization was measured using Annexin V-FITC/PI apoptosis detection kit (BD Biosciences, San Jose, CA) according to the manufacturer's instructions, as reported earlier. HepG2 cells were treated with 13a at defined concentrations for 24 h.
The apoptotic effect of coumarin 13a was further assured by Annexin V-FITC/PI (AV/PI) dual staining assay to investigate the occurrence of phosphatidylserine externalization (Figure 3).

caspase-3 = experiment: ELISA immunoassay, active caspase-3 level in HepG2 cells; format: cell-based, human; details: HepG2 cells treated at IC50 concentration
Excerpt: as §1
As a key executioner protease, caspase-3 is activated by upstream initiator caspases as caspase-9.

IC50 (MCF-7 breast cancer): 83.2 ± 6.85 µM | IC50 ([1]; HepG2, 72 h, 72 h incubation, SRB, mean ± SE of three experiments, read-out: IC50 HepG2): 3.48 ± 0.28 µM | IC50 ([1]; HepG2, training set, Table 4, -log IC50 (IC50 in µM), read-out: HepG2 Experimental activity (pIC50) (converted)): 3.48 µM | IC50 (Caco-2 colon cancer; 72 h incubation, SRB, mean ± SE of three experiments, read-out: IC50 Caco-2): 83.4 ± 7.04 µM | IC50 (Caco-2 colon cancer; training set, Table 4, -log IC50 (IC50 in µM), read-out: Caco-2 Experimental activity (pIC50) (converted)): 83.4 µM
Structure (SMILES): CC(=NNc1nc(-c2ccccc2)cs1)c1ccc(NS(=O)(=O)c2ccc3oc(=O)ccc3c2)cc1 [Compound 13a, 2-Oxo-N-(4–(1-(2–(4-phenylthiazol-2-yl)hydrazono)ethyl)phenyl)-2H-chromene-6-sulfonamide]
Bax expression level (Bax): 453.3 Pg/mg protein | Bax, folds of control (Bax): 16.5 folds | fold increased potency than doxorubicin ([1]; HepG2 IC50 ratio): 1.5 fold | arrest in G2-M phase compared to control (HepG2 cells [2]): 5.4 folds | increase in percentage of cells at Pre-G1 compared to control (HepG2 cells [2]): 6.4 folds | Bcl-2, folds of control (Bcl-2): 0.21 folds | Bcl-2 expression level (Bcl-2): 1.51 ng/mg protein | Bcl-2 level, % of control (Bcl-2): 21.4% | IC50 ([3]; Homo sapiens, WI-38, normal lung fibroblasts): 73.2 ± 3.47 µM | Selectivity index ([3]; WI-38 versus HepG2): 21 | annexin V-FITC positive apoptotic cells, folds compared to control (HepG2 cells [4]): about 7.9 folds | annexin V-FITC positive apoptotic cells (UR + LR) (HepG2 cells [4]; control 1.75%): 13.76% | Caspase-3 (active caspase-3 level) (caspase-3): 0.3021 ng/mg protein
